Measurements published in PubChem BioAssay AID1963844 (Molecular Pharmacology Branch, DTP, NCI, 2024).

Tested on: 422866-222-R5-J1-PDC complex spheroid viability
Test: Anticancer human tumor 422866-222-R5-J1-PDC patient-derived pancreatic adenocarcinoma cell line growth inhibition [POLQ]
Settings: for IC50: curve of first compound; for viability, T/C: stronger effect = lower value
Method in brief: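 Complex spheroid viability model combining PDC tumour cells with endothelial (HUVEC) and MSC stromal cells. Novobiocin, ART-558 or RP6685 were tested singly and in combination with standard and investigational anticancer drugs. Each was titrated in half-log steps from near clinical Cmax, or from 10 microM where Cmax was unknown.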

[1] = second compound 0.0316 µM, first compound 0.0316 µM
[2] = second compound 0.0316 µM, first compound 0.1 µM
[3] = second compound 0.0316 µM, first compound 0.316 µM
[4] = second compound 0.0316 µM, first compound 1 µM
[5] = second compound 0.0316 µM, first compound 3.16 µM
[6] = second compound 0.0316 µM, first compound 10 µM
[7] = second compound 0.1 µM, first compound 0.0316 µM
[8] = second compound 0.1 µM, first compound 0.1 µM
[9] = second compound 0.1 µM, first compound 0.316 µM
[10] = second compound 0.1 µM, first compound 1 µM
[11] = second compound 0.1 µM, first compound 3.16 µM
[12] = second compound 0.1 µM, first compound 10 µM
[13] = second compound 0.316 µM, first compound 0.0316 µM
[14] = second compound 0.316 µM, first compound 0.1 µM
[15] = second compound 0.316 µM, first compound 0.316 µM
[16] = second compound 0.316 µM, first compound 1 µM
[17] = second compound 0.316 µM, first compound 3.16 µM
[18] = second compound 0.316 µM, first compound 10 µM
[19] = second compound 1 µM, first compound 0.0316 µM
[20] = second compound 1 µM, first compound 0.1 µM
[21] = second compound 1 µM, first compound 0.316 µM
[22] = second compound 1 µM, first compound 1 µM
[23] = second compound 1 µM, first compound 3.16 µM
[24] = second compound 1 µM, first compound 10 µM
[25] = second compound 3.16 µM, first compound 0.0316 µM
[26] = second compound 3.16 µM, first compound 0.1 µM
[27] = second compound 3.16 µM, first compound 0.316 µM
[28] = second compound 3.16 µM, first compound 1 µM
[29] = second compound 3.16 µM, first compound 3.16 µM
[30] = second compound 3.16 µM, first compound 10 µM
[31] = second compound 10 µM, first compound 0.0316 µM
[32] = second compound 10 µM, first compound 0.1 µM
[33] = second compound 10 µM, first compound 0.316 µM
[34] = second compound 10 µM, first compound 1 µM
[35] = second compound 10 µM, first compound 3.16 µM
[36] = second compound 10 µM, first compound 10 µM
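Note: spheroids exposed to compounds for one week before readout.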
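Throughout, for viability, T/C: percent of DMSO vehicle wells luminescence so 100% = untreated viability.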

**Q.** With O=C(Nc1ccc(O)c(NS(=O)(=O)c2ccc(F)cc2)c1)c1ccc(-c2ccccc2)cc1 + Nc1ccc(C#CCN(C(=O)Cc2ncc(C(F)(F)F)cc2C(F)(F)F)c2ccc(F)cc2)nn1 as the compound, how does the IC50 (second compound 0.0316 µM) read?
**A.** > 10 µM

**Q.** And the IC50 (second compound 0.1 µM)?
**A.** > 10 µM

**Q.** And the IC50 (second compound 0.316 µM)?
**A.** > 10 µM

**Q.** What about the IC50 (second compound 1 µM) of the same compound?
**A.** > 10 µM

**Q.** And the IC50 (second compound 3.16 µM)?
**A.** > 10 µM

**Q.** What about the IC50 (second compound 10 µM) of the same compound?
**A.** > 10 µM

**Q.** And the viability, T/C [1]?
**A.** 98.8%

**Q.** What about the viability, T/C [2] of the same compound?
**A.** 84.9%

**Q.** And the viability, T/C [3]?
**A.** 81.6%

**Q.** What about the viability, T/C [4] of the same compound?
**A.** 86.9%

**Q.** And the viability, T/C [5]?
**A.** 83.7%

**Q.** What about the viability, T/C [6] of the same compound?
**A.** 113%

**Q.** What about the viability, T/C [7] of the same compound?
**A.** 105%

**Q.** And the viability, T/C [8]?
**A.** 94.3%

**Q.** And the viability, T/C [9]?
**A.** 97.1%

**Q.** And the viability, T/C [10]?
**A.** 90.5%

**Q.** What about the viability, T/C [11] of the same compound?
**A.** 99.8%

**Q.** And the viability, T/C [12]?
**A.** 123%

**Q.** What about the viability, T/C [13] of the same compound?
**A.** 88.7%

**Q.** What about the viability, T/C [14] of the same compound?
**A.** 90%

**Q.** And the viability, T/C [15]?
**A.** 94.2%

**Q.** What about the viability, T/C [16] of the same compound?
**A.** 89.9%

**Q.** What about the viability, T/C [17] of the same compound?
**A.** 97.3%

**Q.** What about the viability, T/C [18] of the same compound?
**A.** 116%

**Q.** What about the viability, T/C [19] of the same compound?
**A.** 107%

**Q.** And the viability, T/C [20]?
**A.** 84.5%

**Q.** What about the viability, T/C [21] of the same compound?
**A.** 92.6%

**Q.** And the viability, T/C [22]?
**A.** 87.9%

**Q.** What about the viability, T/C [23] of the same compound?
**A.** 88.6%

**Q.** What about the viability, T/C [24] of the same compound?
**A.** 117%

**Q.** What about the viability, T/C [25] of the same compound?
**A.** 107%

**Q.** And the viability, T/C [26]?
**A.** 99%

**Q.** And the viability, T/C [27]?
**A.** 99.6%

**Q.** What about the viability, T/C [28] of the same compound?
**A.** 78.7%

**Q.** And the viability, T/C [29]?
**A.** 103%

**Q.** And the viability, T/C [30]?
**A.** 109%

**Q.** What about the viability, T/C [31] of the same compound?
**A.** 105%

**Q.** What about the viability, T/C [32] of the same compound?
**A.** 85.2%

**Q.** And the viability, T/C [33]?
**A.** 80.8%

**Q.** What about the viability, T/C [34] of the same compound?
**A.** 93.8%

**Q.** What about the viability, T/C [35] of the same compound?
**A.** 101%

**Q.** And the viability, T/C [36]?
**A.** 102%

**Q.** Which results are given for CCCS(=O)(=O)Nc1ccc(F)c(C(=O)c2c[nH]c3ncc(-c4ccc(Cl)cc4)cc23)c1F + Nc1ccc(C#CCN(C(=O)Cc2ncc(C(F)(F)F)cc2C(F)(F)F)c2ccc(F)cc2)nn1?
**A.** IC50 (second compound 0.0316 µM): > 10 µM; IC50 (second compound 0.1 µM): > 10 µM; IC50 (second compound 0.316 µM): > 10 µM; IC50 (second compound 1 µM): > 10 µM; IC50 (second compound 3.16 µM): > 10 µM; IC50 (second compound 10 µM): > 10 µM; viability, T/C [1]: 101%; viability, T/C [2]: 103%; viability, T/C [3]: 107%; viability, T/C [4]: 181%; viability, T/C [5]: 197%; viability, T/C [6]: 118%; viability, T/C [7]: 115%; viability, T/C [8]: 107%; viability, T/C [9]: 115%; viability, T/C [10]: 182%; viability, T/C [11]: 173%; viability, T/C [12]: 118%; viability, T/C [13]: 105%; viability, T/C [14]: 96.4%; viability, T/C [15]: 113%; viability, T/C [16]: 162%; viability, T/C [17]: 164%; viability, T/C [18]: 129%; viability, T/C [19]: 103%; viability, T/C [20]: 112%; viability, T/C [21]: 125%; viability, T/C [22]: 133%; viability, T/C [23]: 193%; viability, T/C [24]: 113%; viability, T/C [25]: 107%; viability, T/C [26]: 124%; viability, T/C [27]: 138%; viability, T/C [28]: 127%; viability, T/C [29]: 153%; viability, T/C [30]: 114%; viability, T/C [31]: 125%; viability, T/C [32]: 138%; viability, T/C [33]: 166%; viability, T/C [34]: 154%; viability, T/C [35]: 166%; viability, T/C [36]: 96.7%

**Q.** Which results are given for CCc1cc2c(N3CCc4c(cc(Cn5ccnc5)cc4-c4cn(C)nc4C(F)(F)F)C3=O)cc(C)nc2c(OC)n1 + COC1C(OC(N)=O)C(O)C(Oc2ccc3c(O)c(NC(=O)c4ccc(O)c(CC=C(C)C)c4)c(=O)oc3c2C)OC1(C)C?
**A.** IC50 (second compound 0.0316 µM): > 10 µM; IC50 (second compound 0.1 µM): > 10 µM; IC50 (second compound 0.316 µM): > 10 µM; IC50 (second compound 1 µM): > 10 µM; IC50 (second compound 3.16 µM): > 10 µM; IC50 (second compound 10 µM): > 10 µM; viability, T/C [1]: 96.1%; viability, T/C [2]: 95.7%; viability, T/C [3]: 92.4%; viability, T/C [4]: 129%; viability, T/C [5]: 125%; viability, T/C [6]: 119%; viability, T/C [7]: 100%; viability, T/C [8]: 88.8%; viability, T/C [9]: 94.6%; viability, T/C [10]: 126%; viability, T/C [11]: 110%; viability, T/C [12]: 93.7%; viability, T/C [13]: 93.7%; viability, T/C [14]: 94.5%; viability, T/C [15]: 108%; viability, T/C [16]: 102%; viability, T/C [17]: 102%; viability, T/C [18]: 111%; viability, T/C [19]: 97.7%; viability, T/C [20]: 98%; viability, T/C [21]: 96.5%; viability, T/C [22]: 92.8%; viability, T/C [23]: 121%; viability, T/C [24]: 108%; viability, T/C [25]: 102%; viability, T/C [26]: 101%; viability, T/C [27]: 123%; viability, T/C [28]: 106%; viability, T/C [29]: 123%; viability, T/C [30]: 116%; viability, T/C [31]: 102%; viability, T/C [32]: 85.6%; viability, T/C [33]: 106%; viability, T/C [34]: 95.1%; viability, T/C [35]: 109%; viability, T/C [36]: 102%

**Q.** What does the source list for COc1ccc([C@@H](O)c2cc(-c3ncnc4cc(N5CCOCC5)ccc34)c(F)cc2Cl)nn1 + COC1C(OC(N)=O)C(O)C(Oc2ccc3c(O)c(NC(=O)c4ccc(O)c(CC=C(C)C)c4)c(=O)oc3c2C)OC1(C)C?
**A.** IC50 (second compound 0.0316 µM): 2.65 µM; IC50 (second compound 0.1 µM): 1.98 µM; IC50 (second compound 0.316 µM): 2.19 µM; IC50 (second compound 1 µM): 2.91 µM; IC50 (second compound 3.16 µM): 2.36 µM; IC50 (second compound 10 µM): 1.94 µM; viability, T/C [1]: 96.4%; viability, T/C [2]: 96%; viability, T/C [3]: 76.5%; viability, T/C [4]: 67.2%; viability, T/C [5]: 44.6%; viability, T/C [6]: 40.5%; viability, T/C [7]: 101%; viability, T/C [8]: 100%; viability, T/C [9]: 93.3%; viability, T/C [10]: 60%; viability, T/C [11]: 45.5%; viability, T/C [12]: 37.4%; viability, T/C [13]: 88.5%; viability, T/C [14]: 94.9%; viability, T/C [15]: 82.8%; viability, T/C [16]: 61.7%; viability, T/C [17]: 41.2%; viability, T/C [18]: 46.5%; viability, T/C [19]: 109%; viability, T/C [20]: 102%; viability, T/C [21]: 76%; viability, T/C [22]: 67.5%; viability, T/C [23]: 47.1%; viability, T/C [24]: 40%; viability, T/C [25]: 98.8%; viability, T/C [26]: 99.5%; viability, T/C [27]: 77.9%; viability, T/C [28]: 62%; viability, T/C [29]: 48.3%; viability, T/C [30]: 30.4%; viability, T/C [31]: 97.7%; viability, T/C [32]: 99.5%; viability, T/C [33]: 86.7%; viability, T/C [34]: 58.7%; viability, T/C [35]: 45.4%; viability, T/C [36]: 37%
